Source: ChEMBL document CHEMBL1287709, “Trifluoromethylphenyl as P2 for ketoamide-based cathepsin S inhibitors” (Bioorg Med Chem Lett, 2010)

How the values were obtained:
Cathepsin S [1] = target: T1, Cathepsin S (Homo sapiens, UniProt P25774); assay: Inhibition of human cathepsin S by fluorescence assay
Cathepsin K = target: T2, Cathepsin K (Homo sapiens, UniProt P43235); assay: Inhibition of human cathepsin K by fluorescence assay
T2 sequence (P43235 whole entry): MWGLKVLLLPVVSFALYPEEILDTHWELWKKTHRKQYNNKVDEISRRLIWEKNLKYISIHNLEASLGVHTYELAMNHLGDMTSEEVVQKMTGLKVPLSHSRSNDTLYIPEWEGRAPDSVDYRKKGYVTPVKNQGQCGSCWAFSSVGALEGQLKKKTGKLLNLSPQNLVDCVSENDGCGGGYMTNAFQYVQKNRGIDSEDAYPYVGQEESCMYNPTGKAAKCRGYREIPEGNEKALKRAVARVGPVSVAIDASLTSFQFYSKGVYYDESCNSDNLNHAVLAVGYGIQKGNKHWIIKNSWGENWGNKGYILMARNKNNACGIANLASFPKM

Cathepsin B = Cathepsin B (Homo sapiens, UniProt P07858); assay: Inhibition of human cathepsin B by fluorescence assay
Cathepsin L2 = target: T3, Cathepsin L2 (Homo sapiens, UniProt O60911); assay: Inhibition of human cathepsin V by fluorescence assay
T3 sequence (O60911 whole entry): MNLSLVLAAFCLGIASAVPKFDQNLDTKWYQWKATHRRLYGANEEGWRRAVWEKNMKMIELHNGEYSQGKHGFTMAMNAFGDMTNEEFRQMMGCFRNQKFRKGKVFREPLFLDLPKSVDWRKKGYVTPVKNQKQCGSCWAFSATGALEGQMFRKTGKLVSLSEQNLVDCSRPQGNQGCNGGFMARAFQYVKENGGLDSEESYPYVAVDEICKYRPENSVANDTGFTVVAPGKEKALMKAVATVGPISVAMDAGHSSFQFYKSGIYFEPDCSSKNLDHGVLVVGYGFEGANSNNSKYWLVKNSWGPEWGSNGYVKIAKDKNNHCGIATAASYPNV

Procathepsin L = Procathepsin L (Homo sapiens, UniProt P07711); assay: Inhibition of human cathepsin L by fluorescence assay
Procathepsin L, sequence (P07711 whole entry): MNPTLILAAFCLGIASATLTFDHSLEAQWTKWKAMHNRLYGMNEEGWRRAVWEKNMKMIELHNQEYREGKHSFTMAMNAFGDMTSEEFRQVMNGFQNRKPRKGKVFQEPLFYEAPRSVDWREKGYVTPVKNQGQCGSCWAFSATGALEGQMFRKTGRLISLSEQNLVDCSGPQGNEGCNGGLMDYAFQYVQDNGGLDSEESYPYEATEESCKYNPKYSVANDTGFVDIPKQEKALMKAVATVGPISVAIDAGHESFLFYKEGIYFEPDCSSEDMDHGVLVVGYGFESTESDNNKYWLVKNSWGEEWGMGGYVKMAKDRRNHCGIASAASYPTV

Cathepsin S [2] = target: T1, Cathepsin S; assay: Inhibition of cathepsin S in human JY cells assessed as Lip10 accumulation by Western blotting; format: cell-based

T1 sequence (P25774 whole entry): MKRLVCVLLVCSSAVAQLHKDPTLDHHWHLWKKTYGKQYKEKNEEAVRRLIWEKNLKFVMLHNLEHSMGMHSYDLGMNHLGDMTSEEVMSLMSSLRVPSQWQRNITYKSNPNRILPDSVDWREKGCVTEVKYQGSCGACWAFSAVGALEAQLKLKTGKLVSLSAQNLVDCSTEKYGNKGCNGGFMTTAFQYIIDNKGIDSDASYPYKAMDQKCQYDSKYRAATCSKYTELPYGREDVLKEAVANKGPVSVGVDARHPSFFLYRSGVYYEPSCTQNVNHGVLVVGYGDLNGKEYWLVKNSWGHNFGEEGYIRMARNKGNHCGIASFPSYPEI

IC50 (Cathepsin S [1]) [nM] | IC50 (Cathepsin K) [nM] | IC50 (Cathepsin B) [nM] | IC50 (Cathepsin L2) [nM] | IC50 (Procathepsin L) [nM] | IC50 (Cathepsin S [2]) [nM] | SMILES
30.9 | 107 |  |  |  |  | CC(NC(=O)c1cccc(C(F)(F)F)c1Cl)C(=O)C(N)=O (stereo not drawn)
2.9 | 91.2 |  |  |  |  | CCOc1ccc(C(=O)NC(C)C(=O)C(=O)Nc2ccn[nH]2)c(Cl)c1C(F)(F)F (stereo not drawn)
36 |  |  |  |  |  | CCC(C=O)NC(=O)c1cccc(C(F)(F)F)c1F (stereo not drawn)
19.5 | 46.8 | > 10000 | 1120 | > 10000 |  | CNC(=O)C(=O)C(C)NC(=O)c1ccc(OCc2ccccn2)c(C(F)(F)F)c1Cl (stereo not drawn)
> 10000 | > 10000 |  |  |  |  | N#CCNC(=O)c1cccc(C(F)(F)F)c1
10.5 | 26.3 |  |  |  |  | Cc1cc(NC(=O)C(=O)C(C)NC(=O)c2cccc(C(F)(F)F)c2Cl)[nH]n1 (stereo not drawn)
14.1 | 51.3 |  |  |  |  | CC(NC(=O)c1cccc(C(F)(F)F)c1Cl)C(=O)C(=O)Nc1cc[nH]n1 (stereo not drawn)
31 | 32 |  |  |  |  | CCC(C=O)NC(=O)c1cccc(C(F)(F)F)c1Cl (stereo not drawn)
692 |  |  |  |  |  | CCC(C=O)NC(=O)c1cccc(C(F)(F)F)c1OC (stereo not drawn)
110 |  |  |  |  |  | CC(C=O)NC(=O)c1cccc(C(F)(F)F)c1Cl (stereo not drawn)
1.9 | 47.9 |  |  |  |  | CCCCC(NC(=O)c1ccc(OCc2ccccn2)c(C(F)(F)F)c1Cl)C(=O)C(=O)Nc1ccn(C)n1 (stereo not drawn)
1070 |  |  |  |  |  | CCC(C=O)NC(=O)c1cccc(C(F)(F)F)c1 (stereo not drawn)
> 10000 | > 10000 |  |  |  |  | O=CCNC(=O)c1cccc(C(F)(F)F)c1
18 |  |  |  |  |  | CCC(C=O)NC(=O)c1cccc(C(F)(F)F)c1C (stereo not drawn)
1.1 | 20.9 | 3240 | 16.6 | 141 | 78 | CCC(NC(=O)c1ccc(OCc2ccccn2)c(C(F)(F)F)c1Cl)C(=O)C(=O)Nc1ccn(C)n1 (stereo not drawn)
2.3 | 11.7 | 5750 | 29.5 | 891 | 1300 | CCC(NC(=O)c1cccc(C(F)(F)F)c1Cl)C(=O)C(=O)Nc1ccn[nH]1 (stereo not drawn)
1 | 12.9 | 15100 | 36.3 | 479 |  | CC(NC(=O)c1ccc(OCc2ccccn2)c(C(F)(F)F)c1Cl)C(=O)C(=O)Nc1ccn(C)n1 (stereo not drawn)
1.1 |  |  |  |  | 1920 | CCC(NC(=O)c1ccc(OCc2ccccn2)c(C(F)(F)F)c1Cl)C(=O)C(N)=O (stereo not drawn)
8.5 | 33.1 |  |  |  |  | CC(NC(=O)c1cccc(C(F)(F)F)c1Cl)C(=O)C(=O)Nc1ccn(C)n1 (stereo not drawn)
2.3 | 11.5 |  |  |  |  | CC(C)C(NC(=O)c1ccc(OCc2ccccn2)c(C(F)(F)F)c1Cl)C(=O)C(=O)Nc1ccn(C)n1 (stereo not drawn)
> 10000 | > 10000 | > 10000 | > 10000 | > 10000 |  | CC(NC(=O)c1ccc(OCc2ccccn2)c(C(F)(F)F)c1Cl)C(=O)C(=O)N(C)C (stereo not drawn)
4.8 | 37.2 |  |  |  |  | CC(NC(=O)c1ccc(OCc2ccccn2)c(C(F)(F)F)c1Cl)C(=O)C(N)=O (stereo not drawn)
11 | 195 |  |  |  |  | CCOc1ccc(C(=O)NC(C)C(=O)C(N)=O)c(Cl)c1C(F)(F)F (stereo not drawn)
